According to US20100022637A1, “IDENTIFICATION OF ANTI-CANCER COMPOUNDS AND COMPOUNDS FOR TREATING HUNTINGTON'S DISEASE AND METHODS OF TREATMENT THEREOF” (THE TRUSTEES OF COLUMBIA UNIVERSITY IN THE CITY OF NEW YORK, priority 2005, published 2010):
Converted amounts (≈) assume the structure as drawn.

Assays:
parental ST14A cells = assay: Cell death rescue in parental cells (selectivity counter screen); format: cell-based, rat; details: in words
Description: Cell death is indicated by a decrease in fluorescence. […] (with 5% CO2).
Identification of selective inhibitors of mutant-htt toxicity: As a first step towards probing mechanisms of action of these compounds, it was tested whether compounds selectively targeted pathways that are perturbed by mutant htt or if they suppressed a general death mechanism. Caspase activation was tested to see if it contributed to cell death in this model, since caspase-dependent pathways have been broadly implicated in cell death and in HD (Thornberry, N. and Y. Lazebnik, Science 1998, 281:1312-6; Sanchez Mejia, R and R. Friedlander Neuroscientist 2001, 7: 480-9; Hickey M. and M. Chesselet, Prog Neuropsychopharmacol Biol Psych 2003, 27: 255-65). Caspase activation was monitored via measuring the cleavage of specific fluorogenic caspase substrates. […] The decreased caspase activation in WT N548 cells was consistent with relative protection of these cells from cell death. […] Thus, the ability of a compound to rescue cell death in ST14A cells could be used as a selectivity filter to differentiate compounds that were selective for pathways selective for mutant htt induced cell death. The selectivity of rescue by a compound was determined by assessing rescue of cell death in parental ST14A cells. […]

N548 mutant cells = assay: in vitro; details: for Activity: scale not defined; for selectivity profile of cell death rescue in panel of htt expressing cell lines: N63, N548, FL htt cell lines
caspases = assay: Caspase assay (fluorogenic AFC substrates); format: cell-based, rat; details: 50 μM; ST14A and N548 mutant cells, serum deprivation 39° C.
Description: Caspase activity was measured using a fluorogenic assay (Biovision Inc. CA), based on cleavage of AFC (7-amino-4-trifluoromethyl coumarin) from specific AFC-conjugated peptide substrates by activated caspases. Each cell line was seeded at 10^6 cells/plate, incubated overnight at 33° C., and then incubated for 6 h at 39° C. in 0.5% IFS containing medium with or without BOC-D-fmk (50 μM). Four plates/sample were harvested in lysis buffer provided by the manufacturer. Peptide substrates were added to the cell lysate or to lysis buffer (control), incubated at 37° C. for 2 h, and fluorescence (ex 355/em 510 nm) measured on a plate reader (Perkin Elmer Victor^3). Fluorescence intensities of controls were subtracted from sample intensity and the resulting value normalized to protein in each sample (Bradford Assay from BioRad; Hercules, Calif.).

RKO-E6 cells [1] = assay: Alamar Blue viability assay, RKO-E6; format: cell-based, human; details: for effect on doxorubicin's lethality in RKO-E6 cells: co-treatment with 0.5 μg/ml doxorubicin, 24 h
Description: (§1) RKO colon carcinoma, human (ATCC, order # CRL-2577), RKO-E6 colon carcinoma transfected with HPV E6 inserted in pCMV.3 (ATCC, order # CRL-2578) were grown in MEM with 2 mM L-glutamine and Earle's BBS adjusted to contain 1.5 g/L NaHCO3, 0.1 mM non-essential amino acids and 1.0 mM sodium pyruvate, and supplemented with 10% fetal bovine serum, penicillin and streptomycin (pen/strep). Both cell lines were incubated at 37° C. in a humidified incubator containing 5% CO2.
The Alamar Blue assay incorporates a fluorimetric/colorimetric growth indicator that changes color in the response to chemical reduction by viable cells (Nociari 1998). Cells were seeded at a density of 3,000 cells (57 μl) per well in a 384-well black, clear-bottom plates using a syringe bulk dispenser (Zymark Sciclone ALH). Three microliters were removed from a compound daughter plate using a 384 fixed cannula head and added to the assay plate, making the final concentration 4 μg/ml. The plates were incubated for 24 h at 37° C. 10 μl of 40% Alamar Blue (Biosource Int., cat #DAL1100) solution in media was added to each well (1:10 dilution). The assay plates were incubated for 16h. Fluorescence intensity was determined using a Packard Fusion platereader with a 535 nm excitation filter and a 590 nm emission filter. The average fluorescence for the whole plate was used as a positive control. Average percentage inhibition for each well was determined using our freely available SLIMS software (Kelley et al., 2004).
The daughter plates for the 2-fold dilution series were prepared with a Zymark Sciclone ALH by diluting the replica daughter plates to obtain compound concentrations from 8 μg/ml-0.008 μg/ml (columns 8-18). Columns 1-7 were used as untreated control. RKO-E6 cells were seeded at the density of 3,000 per well in 55 μl, and 5 μl were added from the daughter plate. RKO cells were seeded at the density of 2,000 per well in 55 μl, and 5 μl were added from the daughter plate. The assay was incubated for 24 h at 37° C. 10% Alamar Blue was added to each well and the assay was incubated for 16 h (see above). Compounds for retesting were purchased from the manufacturers or from Sigma-Aldrich (see above). Stocks were prepared in DMSO at 4 mg/ml.
(§2) Each cell line (RKO, RKO-E6, HeLa and TC32) was treated with a dose combination matrix of doxorubicin and a selected hit compound. Each treatment was done in a triplicate in 384-well format. The average percent inhibition of cell proliferation, measured with Alamar Blue, was determined using the following formula: […]

RKO cells [2] = assay: Flow cytometry cell cycle distribution, RKO; format: cell-based, human; details: 24 h, propidium iodide
Description: (§3) RKO, RKO-E6 or HeLa cells were seeded in 20-cm dishes in 10 ml of growth medium. Cells were allowed to adhere and then treated with the selected compounds for 24 h. The treated cells were collected, washed 2× with PBS and counted. The cell pellet was re-suspended in 500 μl of ice cold PBS and 2-5 ml of cold 70% ethanol (−20° C.) were added. Cells were fixed for 1 h or overnight. 5-10 million cells were placed into a 15-ml conical tube and centrifuged at 1000 g. Cells were washed 2× with 1% calf serum in PBS. Cells were resuspended in 800 μl of 1% calf serum in PBS and 100 μl of Rnase (1 mg/ml) and 100 μl of propidium iodide (400 μg/ml) added. Cells were incubated at 37° C. for 30 min and then analyzed on flow cytometer.

p53 = assay: Western blot of p53 (p21, MDM2) levels; format: cell-based, human; details: RKO-E6 cells; in words
Description: Protein content was quantified using a BioRad protein assay reagent (BioRad, cat #500-0006). Equal amounts of protein were resolved on SDS-polyacrylamide gels. Proteins were transferred onto a PVDF membrane, blocked with 5% milk, and incubated with the appropriate primary and secondary antibodies. […] To test for equivalent loading in each lane, blots were stripped, blocked and probed with an anti-eIF-4E antibody.

RKO cells [3] = assay: Alamar Blue viability assay, RKO; format: cell-based, human; details: in words
Description: as §1
The Alamar Blue assay incorporates a fluorimetric/colorimetric growth indicator that changes color in the response to chemical reduction by viable cells (Nociari 1998). Cells were seeded at a density of 3,000 cells (57 μl) per well in a 384-well black, clear-bottom plates using a syringe bulk dispenser (Zymark Sciclone ALH). […] Fluorescence intensity was determined using a Packard Fusion platereader with a 535 nm excitation filter and a 590 nm emission filter. The average fluorescence for the whole plate was used as a positive control. Average percentage inhibition for each well was determined using our freely available SLIMS software (Kelley et al., 2004). […]
Each cell line (RKO, RKO-E6, HeLa and TC32) was treated with a dose combination matrix of doxorubicin and a selected hit compound. […] The average percent inhibition of cell proliferation, measured with Alamar Blue, was determined using the following formula: […]

[4] = test system: HeLa, TC32, A673, BJELR cells; assay: Alamar Blue viability assay, other cancer cell lines; format: cell-based; details: TC32 (A673 for T55D7)
Description: as §2

RKO-E6 cells [5] = assay: Flow cytometry cell cycle distribution, RKO-E6; format: cell-based, human; details: 24 h, propidium iodide
Description: as §3

in vitro = details: rat
N2 worms = details: 6 mM; cited from earlier work
topoisomerase IIα = assay: Western blot of topoisomerase IIα level; format: cell-based, human; details: RKO and/or RKO-E6 cells; in words
Excerpt: Antibodies were obtained form the following suppliers: p53 (Oncogene/Calbiochem, cat #OP43), p21 (Santa Cruz Biotechnology inc., cat #sc-817), MDM2 (Santa Cruz Biotechnology Inc., cat #sc-965), Topoisomerase IIα (TopoGEN, cat #2011-1), Topoisomerase I (BD PharMingen, cat #556597), Cyclin B (BD Transduction Laboratories, cat #610219), Cyclin A (BD Transduction Laboratories, cat #611268), Anti-Fluorescein-HRP (Molecular Probes, cat #A21253), Anti-biotin-HRP (Cell Signaling Technology, cat #7075, Jackson ImmunoResearch Laboratories, cat #200-032-096), eIF4E (Santa Cruz Biotechnology Inc., cat #sc-9976 HRP).
Cells were lysed in denaturing lysis buffer (50 mM HEPES KOH [pH 7.4], 40 mM NaCl, 2 mM EDTA, 1.5 mM Na3VO4, 50 mM NaF, 10 mM sodium pyrophosphate, 10 mM sodium β-glycerophosphate, 0.5% Triton X-100, and protease inhibitor tablet [Roche, cat #11777700]). Protein content was quantified using a BioRad protein assay reagent (BioRad, cat #500-0006). Equal amounts of protein were resolved on SDS-polyacrylamide gels. Proteins were transferred onto a PVDF membrane, blocked with 5% milk, and incubated with the appropriate primary and secondary antibodies. […]

[6] = test system: PC12 expressing Q103 exon 1 htt; assay: PC12 HD model, Alamar Blue viability; format: cell-based
Description: For enhanced stability the repeat portion consists of alternating CAG/CAA repeats. […] Mutant (mut) htt was induced by the ecdysone receptor agonist, tebufenozide.
For the PC12 assay, 7500 cells/well were plated in 384-well plates in 57 μl of PC12 medium with tebufenozide (1 μM). Compounds (3 μl) from daughter plates were added to the cells and incubated at 37° C. After 48 h, 20 μl of 40% Alamar Blue (Biosource, CA) in PC12 media was added per well and cells incubated for 12 h at 37° C. […] Fluorescence intensity was determined using a Packard Fusion plate reader with an excitation filter centered on 535 nm and an emission filter centered on 590 nm. Average percentage inhibition at each concentration was calculated.

COC(=O)CC(NC(=O)OC(C)(C)C)C(=O)CF [BOC-D-fmk, reference compound]
rescue of cell death in parental ST14A cells (parental ST14A cells): rescued cell death
rescue of cell death in mutant N548 cells (N548 mutant cells; in words): rescued cell death
EC50 (N548 mutant cells; nonselective hits (rescue also parental ST14A), 0.5% IFS, 39° C., 3 d): 25 µM
TC50 (N548 mutant cells; nonselective hits, maximum concentration tested 80 μM): ND(80)
Activity (N548 mutant cells; nonselective hits): 3
caspase activation (caspases): prevented caspase activation

S=C1N(CN2CCOCC2)CCN1CN1CCOCC1 [Compound T55D7, 1,3-bis(4-morpholinylmethyl)-2-imidazolidinethione]
concentrations with doxorubicin-independent lethality (RKO-E6 cells [1]; absence of doxorubicin): 30 to 100 µM
effect on doxorubicin's lethality in RKO-E6 cells (RKO-E6 cells [1]; in words): increase both doxorubicin's and camptothecin's lethality
effect on camptothecin's lethality (RKO-E6 cells [1]; co-treatment with camptothecin, in words): increase both doxorubicin's and camptothecin's lethality
effect on podophyllotoxin's lethality (RKO-E6 cells [1]; co-treatment with podophyllotoxin, in words): did not increase the microtubule inhibitor podophylotoxin's lethality
Bliss Independence analysis of combination with doxorubicin (RKO-E6 cells [1]; combination dose matrix): exceeded Bliss Independence with doxorubicin at multiple doses
cell cycle effect in RKO cells (RKO cells [2]): virtually no changes in the cell cycle
p53, p21, MDM2 levels (p53): did not change p53 concentration
effect on doxorubicin's lethality in RKO cells (RKO cells [3]): increase both doxorubicin's and camptothecin's lethality
effect on doxorubicin's potency in other cell lines [4]: upregulated doxorubicin's potency in other cell lines
cell cycle effect in RKO-E6 cells (RKO-E6 cells [5]): pronounced S-phase arrest

O=C(O)c1ccccc1Nc1cccc(C(F)(F)F)c1 [Flufenamic Acid, reference compound]
CC50 at 3 days (in vitro; ST14A striatal cells expressing N548 mutant human htt): 40 µM
EC50 (N548 mutant cells; Rattus norvegicus, ST14A, 72 h): 5 µM
Activity (N548 mutant cells; nonselective hits): 1.5

CC[n+]1c(-c2ccccc2)c2cc(N)ccc2c2ccc(N)cc21 [Homidium Bromide, reference compound]
CC50 (in vitro): 15 µM
EC50 (N548 mutant cells; Rattus norvegicus, ST14A, 72 h): 10 µM
Activity (N548 mutant cells; nonselective hits): 1.5

C[n+]1ccc(-c2cc[n+](C)cc2)cc1 [Paraquat]
toxicity in worms (N2 worms): toxic

C[C@@H]1C[C@@H]([C@H](O)CC2CC(=O)NC(=O)C2)C(=O)[C@@H](C)C1 [cycloheximide]
effect on doxorubicin's lethality in RKO-E6 cells (RKO-E6 cells [1]; in words): potentiated doxorubicin's lethality
p53, p21, MDM2 levels (p53): caused a disappearance of p53 and p21
topoisomerase IIα levels (topoisomerase IIα): caused increased topoisomerase IIα levels

CCCCCCCCCC(=O)Oc1cc(-c2ccccc2)nn1-c1cccc(F)c1 [revertin-1c]
rescue of cell death in parental ST14A cells (parental ST14A cells): not in parental ST14A cells
EC50 ([6]; Rattus norvegicus, PC-12, unit inferred): 40 µg/mL (≈ 97.9 µM)
PC12 rescue: percent increase in viability in compound treated cells above DMSO treated ([6]; — = no activity in the assay (footnote n.a.)): 23%
selectivity profile of cell death rescue in panel of htt expressing cell lines (N548 mutant cells; in words): selectively rescued cell death in all mutant htt-expressing cell lines
selectivity profile of cell death rescue in panel of htt expressing cell lines (N548 mutant cells; in words, listed as Rev-1c): selectively rescues cell death in three mutant htt expressing cell lines
maximal fold induction (N548 mutant cells; Rattus norvegicus, 72 h, read-out: N548 Mut: Max, maximum rescue expressed as fold over DMSO treated N548 mutant cells): 2.5
EC50 (N548 mutant cells; Rattus norvegicus, read-out: EC50 based on activity in N548 mutant cells): 4 µg/mL
